Measurements reported in patent US20020173538A1, “Method for sensitizing cancer cells to cancer therapies with a mevalonate-reducing compound” (priority 2000, published 2002).
Where two headings read alike, the source gives them in different places. Marks after values point to notes of the source that are not given here.

Tested on: Hep 3B cells
Test: MTT cell viability assay, Hep 3B cells (serum-free DMEM)
Settings: for viability at 0.005 µM / viability at 0.01 µM / viability at 0.02 µM / viability at 0.05 µM / viability at 0.1 µM / viability at 0.2 µM / viability at 0.5 µM / viability at 1 µM / IC50 / viability at 0.002 µM: Homo sapiens, Hep3B
[1] = no lovastatin 48 hr, then taxol 10 nM 48 hr
[2] = no lovastatin 72 hr, then taxol 2 nM 72 hr
[3] = no lovastatin 72 hr, then taxol 5 nM 48 hr
[4] = no lovastatin 72 hr, then taxol 5 nM 72 hr
[5] = no lovastatin 72 hr, then taxol 10 nM 72 hr

CC(=O)O[C@H]1C(=O)[C@@]2(C)[C@H]([C@H](OC(=O)c3ccccc3)[C@]3(O)C[C@H](OC(=O)[C@H](O)[C@@H](NC(=O)c4ccccc4)c4ccccc4)C(C)=C1C3(C)C)[C@]1(OC(C)=O)CO[C@@H]1C[C@@H]2O [Taxol, paclitaxel]
viability at 0.005 µM (48 h, read-out: Cell viability, taxol 5 nM, 48 hr): 91.6 ± 0.5%
viability at 0.005 µM (48 h, read-out: Cell viability, taxol 5 nM, 48 hr, Table 9): 97.5 ± 3.1%
viability at 0.01 µM (48 h, read-out: Cell viability, taxol 10 nM, 48 hr): 87.1 ± 1.5%
viability at 0.01 µM (48 h, read-out: Cell viability, taxol 10 nM, 48 hr, Table 9): 89.1 ± 3%
viability at 0.02 µM (48 h, read-out: Cell viability, taxol 20 nM, 48 hr): 85.4 ± 0.9%
viability at 0.05 µM (48 h, read-out: Cell viability, taxol 50 nM, 48 hr): 83.5 ± 0.9%
viability at 0.1 µM (48 h, read-out: Cell viability, taxol 100 nM, 48 hr): 74.9 ± 1.8%
viability at 0.2 µM (48 h, read-out: Cell viability, taxol 200 nM, 48 hr): 64.7 ± 4.6%
viability at 0.5 µM (48 h, read-out: Cell viability, taxol 500 nM, 48 hr): 56.2 ± 0.8%
viability at 1 µM (48 h, read-out: Cell viability, taxol 1000 nM, 48 hr): 55.3 ± 0.5%
IC50 (48 h, read-out: IC50 (cell viability), 48 hr, Table 8): 1119 ± 10.1 nM
IC50 (48 h, read-out: IC50 (cell viability), 48 hr, Table 9): 45.9 nM
viability at 0.002 µM (72 h, read-out: Cell viability, taxol 2 nM, 72 hr): 94 ± 3.6%
viability at 0.002 µM (72 h, read-out: Cell viability, taxol 2 nM, 72 hr, Table 9): 94 ± 3.6%
viability at 0.005 µM (72 h, read-out: Cell viability, taxol 5 nM, 72 hr): 91.7 ± 3.7%
viability at 0.005 µM (72 h, read-out: Cell viability, taxol 5 nM, 72 hr, Table 9): 91.7 ± 3.7%
viability at 0.01 µM (72 h, read-out: Cell viability, taxol 10 nM, 72 hr): 88.5 ± 2.4%
viability at 0.01 µM (72 h, read-out: Cell viability, taxol 10 nM, 72 hr, Table 9): 88.5 ± 2.4%
viability at 0.02 µM (72 h, read-out: Cell viability, taxol 20 nM, 72 hr): 85.6 ± 1.1%
viability at 0.05 µM (72 h, read-out: Cell viability, taxol 50 nM, 72 hr): 71.2 ± 4.2%
viability at 0.1 µM (72 h, read-out: Cell viability, taxol 100 nM, 72 hr): 52.7 ± 2.8%
viability at 0.2 µM (72 h, read-out: Cell viability, taxol 200 nM, 72 hr): 47 ± 1%
viability at 0.5 µM (72 h, read-out: Cell viability, taxol 500 nM, 72 hr): 32.2 ± 4.7%
viability at 1 µM (72 h, read-out: Cell viability, taxol 1000 nM, 72 hr): 24.6 ± 2.9%
IC50 (72 h, read-out: IC50 (cell viability), 72 hr, Table 8): 147 ± 14.2 nM
IC50 (72 h, read-out: IC50 (cell viability), 72 hr, Table 9): 43.5 nM
viability at 0.002 µM (96 h, read-out: Cell viability, taxol 2 nM alone, 96 hr, Table 10): 92.6 ± 1.9%
viability at 0.002 µM (96 h, read-out: Cell viability, taxol 2 nM, 96 hr): 94.1 ± 7.9%
viability at 0.005 µM (96 h, read-out: Cell viability, taxol 5 nM alone, 96 hr, Table 10): 79.5 ± 4.6%
viability at 0.005 µM (96 h, read-out: Cell viability, taxol 5 nM, 96 hr): 92.4 ± 4.8%
viability at 0.01 µM (96 h, read-out: Cell viability, taxol 10 nM alone, 96 hr, Table 10): 60.3 ± 3.4%
viability at 0.01 µM (96 h, read-out: Cell viability, taxol 10 nM, 96 hr): 82.3 ± 6.6%
IC50 (96 h, read-out: IC50 (cell viability), 96 hr): 28.2 nM
viability at 0.002 µM (120 h, read-out: Cell viability, taxol 2 nM, 120 hr): 94.2 ± 2.5%
viability at 0.005 µM (120 h, read-out: Cell viability, taxol 5 nM, 120 hr): 82.7 ± 3.7%
viability at 0.01 µM (120 h, read-out: Cell viability, taxol 10 nM, 120 hr): 71.9 ± 4.6%
IC50 (120 h, read-out: IC50 (cell viability), 120 hr): 17.8 nM
Cell viability (no lovastatin 48 hr, then taxol 2 nM 48 hr): 102.4 ± 4.7^a % of control
Ratio, inhibition (%) Hep 3B/inhibition (%) Hep G2 (no lovastatin 48 hr, then taxol 5 nM 48 hr): 0.3***
Cell viability [1]: 76.3 ± 1.3^c % of control
Ratio, inhibition (%) Hep 3B/inhibition (%) Hep G2 [1]: 0.6***
Ratio, inhibition (%) Hep 3B/inhibition (%) Hep G2 (no lovastatin 72 hr, then taxol 2 nM 48 hr): 0.4***
Cell viability [2]: 91.1 ± 1.1^b % of control
Ratio, inhibition (%) Hep 3B/inhibition (%) Hep G2 [2]: 0.4*
Cell viability [3]: 86.9 ± 1.3^b % of control
Ratio, inhibition (%) Hep 3B/inhibition (%) Hep G2 [3]: 0.4***
Cell viability [4]: 96.5 ± 0.6^a % of control
Ratio, inhibition (%) Hep 3B/inhibition (%) Hep G2 [4]: 0.1***
Ratio, inhibition (%) Hep 3B/inhibition (%) Hep G2 (no lovastatin 72 hr, then taxol 10 nM 48 hr): 0.4**
Cell viability [5]: 78.0 ± 0.4^c % of control
Ratio, inhibition (%) Hep 3B/inhibition (%) Hep G2 [5]: 0.6**
Ratio, inhibition (%) Hep 3B/inhibition (%) Hep G2 (taxol 2 nM alone, 96 hr, Table 10): 0.3**
Ratio, inhibition (%) Hep 3B/inhibition (%) Hep G2 (taxol 2 nM, 48 hr): 1.3*
Ratio, inhibition (%) Hep 3B/inhibition (%) Hep G2 (taxol 2 nM, 72 hr): 0.6*
Ratio, inhibition (%) Hep 3B/inhibition (%) Hep G2 (taxol 5 nM alone, 96 hr, Table 10): 0.4**
Ratio, inhibition (%) Hep 3B/inhibition (%) Hep G2 (taxol 5 nM, 48 hr): 0.3**
Ratio, inhibition (%) Hep 3B/inhibition (%) Hep G2 (taxol 5 nM, 72 hr): 0.2**
Ratio, inhibition (%) Hep 3B/inhibition (%) Hep G2 (taxol 10 nM alone, 96 hr, Table 10): 0.5***
Ratio, inhibition (%) Hep 3B/inhibition (%) Hep G2 (taxol 10 nM, 48 hr): 0.4***
Ratio, inhibition (%) Hep 3B/inhibition (%) Hep G2 (taxol 10 nM, 72 hr): 0.2***
Ratio, inhibition (%) Hep 3B/inhibition (%) Hep G2 (taxol 20 nM, 48 hr): 0.3***
Ratio, inhibition (%) Hep 3B/inhibition (%) Hep G2 (taxol 20 nM, 72 hr): 0.2***
Ratio, inhibition (%) Hep 3B/inhibition (%) Hep G2 (taxol 50 nM, 48 hr): 0.3***
Ratio, inhibition (%) Hep 3B/inhibition (%) Hep G2 (taxol 50 nM, 72 hr): 0.4***
Ratio, inhibition (%) Hep 3B/inhibition (%) Hep G2 (taxol 100 nM, 48 hr): 0.4**
Ratio, inhibition (%) Hep 3B/inhibition (%) Hep G2 (taxol 100 nM, 72 hr): 0.6**
Ratio, inhibition (%) Hep 3B/inhibition (%) Hep G2 (taxol 200 nM, 48 hr): 0.5**
Ratio, inhibition (%) Hep 3B/inhibition (%) Hep G2 (taxol 200 nM, 72 hr): 0.6**
Ratio, inhibition (%) Hep 3B/inhibition (%) Hep G2 (taxol 500 nM, 48 hr): 0.6**
Ratio, inhibition (%) Hep 3B/inhibition (%) Hep G2 (taxol 500 nM, 72 hr): 0.8**
Ratio, inhibition (%) Hep 3B/inhibition (%) Hep G2 (taxol 1000 nM, 48 hr): 0.5**
Ratio, inhibition (%) Hep 3B/inhibition (%) Hep G2 (taxol 1000 nM, 72 hr): 0.8**
